# Entries after “also recorded” stand apart in the source; their conditions may differ.
# Assay: Binding to phosphatidylinositol beads (PIP beads), biotinylated peptide detected with streptavidin-HRP/TMB
# Conditions: biotinylated peptide at final concentration of 100 μM, two hours at room temperature, absorbance 595 nm
# Description: Sedimented suspensions of PIP beads™ were obtained from Molecular Probes. The beads are supplied as 10 nanomoles of bound phosphoinositide per milliliter of sedimented suspension. PIP beads were pelleted by centrifugation at low speed in a Beckman Coulter Microfuge. Pelleted beads were washed in wash-binding buffer (0.5% NP-40 in phosphate-buffered saline, 1 ml, 3×5 minutes) and centrifuged at low speed following each wash. After washing, pelleted beads were resuspended in an equal volume of Wash/Binding buffer. 100 μl of bead suspension was used for each binding reaction. Biotinylated chlorotoxin was diluted in wash-binding buffer, added to each phosphatidylinositol bead suspension at a final concentration of 100 μM and allowed to incubate for two hours at room temperature. Following incubation with chlorotoxin, the bead suspensions were washed in Wash/Binding buffer (1 ml, 3×5 minutes) and centrifuged at low speed after each wash. Streptavidin horseradish peroxidase (Vector Labs) was diluted 1:1000 in wash-binding buffer, 100 μl of this solution was added to each of the phosphatidylinositol bead suspensions, and allowed to incubate […] at room temperature. Following incubation with streptavidin, bead suspensions were washed thoroughly in Wash/Binding buffer (1 ml, 5×10 minutes) and centrifuged at low speed after each wash. Immediately prior to use, a 1:1 mixture of TMB substrate (Pierce) was prepared, 100 μl of this solution was added to each reaction, and allowed to incubate at room temperature for up to thirty minutes. After incubation with substrate, bead suspensions were pelleted by centrifugation, supernatants were transferred to a 96-well plate and absorbance (λ=595 nm) was obtained using BioRad microplate reader and microplate manager software.
# In order to confirm the identify of the minimal binding sequences within the alpha and beta peptides, each of the two peptides was incubated with different species of phosphatidylinositols as set forth in Example 1.
row,Substance,binding to different species of phosphatidylinositols
1,TDHQMAR [alpha-domain peptide],no binding activity
2,KGRGKSY [beta-domain peptide],binds to multiple species of phosphatidylinositols; also recorded: bound to all of the same species of phosphatidylinositols as did chlorotoxin
3,chlorotoxin,binding of chlorotoxin to different phosphatidylinositols

# Reference: patent US20070275902A1, “Treatment of Phosphatidylinositol Phospholipid Disorders” (TRANSMOLECULAR, INC., priority 2003, published 2007)
